# Measured values from ChEMBL document CHEMBL1133283, “Arylsulfonyl-N,N-diethyl-dithiocarbamates: a novel class of antitumor agents” (Bioorg Med Chem Lett, 2000).
# Experiments:
# Format in all cases: functional
# Conditions in all cases: Homo sapiens
# HOP-62 = experiment: In vitro growth inhibition of compound was determined against HOP-62 cell lines of non-small cell lung cancer
# 786-0 = experiment: In vitro growth inhibition of compound was determined against […] cell lines of Renal cancer
# OVCAR-3 = experiment: In vitro growth inhibition of compound was determined against OVCAR-3 cell lines of Ovarian cancer
# UACC-257 = experiment: In vitro growth inhibition of compound was determined against UACC-257 cell lines of Melanoma
# SK-MEL-5 = experiment: In vitro growth inhibition of compound was determined against SK-MEL-5 cell lines of Melanoma
# KM12 = experiment: In vitro growth inhibition of compound was determined against KM12 cell lines of colon cancer
# OVCAR-4 = experiment: In vitro growth inhibition of compound was determined against OVCAR-4 cell lines of Ovarian cancer
# IGROV-1 = experiment: In vitro growth inhibition of compound was determined against IGROVI cell lines of Ovarian cancer
# TK-10 = experiment: In vitro growth inhibition of compound was determined against TK-10 cell lines of Renal cancer
# LOX IMVI = experiment: In vitro growth inhibition of compound was determined against LOX IMVI cell lines of Melanoma
# CAKI-1 = experiment: In vitro growth inhibition of compound was determined against CAKI-1 cell lines of Renal cancer
# MDA-N = experiment: In vitro growth inhibition of compound was determined against MDA-Ncell lines of Breast cancer
# SF-295 = experiment: In vitro growth inhibition of compound was determined against SF-295 cell lines of CNS cancer
# NCI-H226 = experiment: In vitro growth inhibition of compound was determined against NCI-H226 cell lines of non-small cell lung cancer
# NCI-H522 = experiment: In vitro growth inhibition of compound was determined against NCI-H522 cell lines of non-small cell lung cancer
# RPMI-8226 = experiment: In vitro growth inhibition of compound was determined against RPMI-8226 cell lines of Leukemia
# SNB-75 = experiment: In vitro growth inhibition of compound was determined against SNB-75 cell lines of CNS cancer
# ACHN = experiment: In vitro growth inhibition of compound was determined against ACHN cell lines of Renal cancer
# OVCAR-8 = experiment: In vitro growth inhibition of compound was determined against OVCAR-8 cell lines of Ovarian cancer
# HCC 2998 = experiment: In vitro growth inhibition of compound was determined against HCC2998 cell lines of colon cancer
# MDA-MB-435 = experiment: In vitro growth inhibition of compound was determined against MDA-MB-435 cell lines of Breast cancer
# K562 = experiment: In vitro growth inhibition of compound was determined against K-562 cell lines of Leukemia
# BT-549 = experiment: In vitro growth inhibition of compound was determined against BT-549 cell lines of Breast cancer
# COLO 205 = experiment: In vitro growth inhibition of compound was determined against COLO-205 cell lines of colon cancer
# NCI/ADR-RES = experiment: In vitro growth inhibition of compound was determined against NCI/ADR-RES cell lines of Breast cancer
# HL-60 = experiment: In vitro growth inhibition of compound was determined against HL-60(TB) cell lines of Leukemia
# Malme-3M = experiment: In vitro growth inhibition of compound was determined against MALME-3M cell lines of Melanoma
# Hs-578T = experiment: In vitro growth inhibition of compound was determined against Hs 578.T cell lines of Breast cancer
# PC-3 = experiment: In vitro growth inhibition of compound was determined against PC-3 cell lines of Prostate cancer
# RXF 393 = experiment: In vitro growth inhibition of compound was determined against RXF393 cell lines of Renal cancer
# SR = experiment: In vitro growth inhibition of compound was determined against SR cell lines of Leukemia
# HOP-92 = experiment: In vitro growth inhibition of compound was determined against HOP-92 cell lines of non-small cell lung cancer
# HT-29 = experiment: In vitro growth inhibition of compound was determined against HT-29 cell lines of colon cancer
# MCF7 = experiment: In vitro growth inhibition of compound was determined against MCF-7 cell lines of Breast cancer
# M14 = experiment: In vitro growth inhibition of compound was determined against M14 cell lines of Melanoma
# DU-145 = experiment: In vitro growth inhibition of compound was determined against DU-145 cell lines of Prostate cancer
# U-251 = experiment: In vitro growth inhibition of compound was determined against U251 cell lines of CNS cancer
# CCRF-CEM = experiment: In vitro growth inhibition of compound was determined against CCRF-CEM cell lines of Leukemia
# UO-31 = experiment: In vitro growth inhibition of compound was determined against UO-31 cell lines of Renal cancer
# HCT-116 = experiment: In vitro growth inhibition of compound was determined against HCT116 cell lines of colon cancer
# SF-268 = experiment: In vitro growth inhibition of compound was determined against SF-268 cell lines of CNS cancer
# A549 = experiment: In vitro growth inhibition of compound was determined against A549/ATCC cell lines of non-small cell lung cancer
# SN12C = experiment: In vitro growth inhibition of compound was determined against SN12C cell lines of Renal cancer
# MDA-MB-231 = experiment: In vitro growth inhibition of compound was determined against MDA-MB-231/ATCC cell lines of Breast cancer
# MOLT-4 = experiment: In vitro growth inhibition of compound was determined against MOLT-4 cell lines of Leukemia
# SW-620 = experiment: In vitro growth inhibition of compound was determined against SW-620 cell lines of colon cancer
# SK-MEL-28 = experiment: In vitro growth inhibition of compound was determined against SK-MEL-28 cell lines of Melanoma
# HCT-15 = experiment: In vitro growth inhibition of compound was determined against HCT-15 cell lines of colon cancer
compound,measurement,setting,value
CCN(CC)C(=S)SS(=O)(=O)c1ccccc1[N+](=O)[O-],GI50,HOP-62,20 µM
same,GI50,786-0,19 µM
same,GI50,OVCAR-3,22 µM
same,GI50,UACC-257,17 µM
same,GI50,SK-MEL-5,3 µM
same,GI50,KM12,12 µM
same,GI50,OVCAR-4,23 µM
same,GI50,IGROV-1,0.5 µM
same,GI50,TK-10,29 µM
same,GI50,LOX IMVI,16 µM
same,GI50,CAKI-1,17 µM
same,GI50,MDA-N,19 µM
same,GI50,SF-295,32 µM
same,GI50,NCI-H226,36 µM
same,GI50,NCI-H522,0.08 µM
same,GI50,RPMI-8226,15 µM
same,GI50,SNB-75,76 µM
same,GI50,ACHN,24 µM
same,GI50,OVCAR-8,18 µM
same,GI50,HCC 2998,24 µM
same,GI50,MDA-MB-435,18 µM
same,GI50,K562,11 µM
same,GI50,BT-549,26 µM
same,GI50,COLO 205,28 µM
same,GI50,NCI/ADR-RES,30 µM
same,GI50,HL-60,0.2 µM
same,GI50,Malme-3M,10 µM
same,GI50,Hs-578T,29 µM
same,GI50,PC-3,54 µM
same,GI50,RXF 393,15 µM
same,GI50,SR,0.3 µM
same,GI50,HOP-92,14 µM
same,GI50,HT-29,14 µM
same,GI50,MCF7,25 µM
same,GI50,M14,11 µM
same,GI50,DU-145,19 µM
same,GI50,U-251,13 µM
same,GI50,CCRF-CEM,2.5 µM
same,GI50,UO-31,13 µM
same,GI50,HCT-116,15 µM
same,GI50,SF-268,26 µM
same,GI50,A549,3 µM
same,GI50,SN12C,18 µM
same,GI50,MDA-MB-231,16 µM
same,GI50,MOLT-4,0.4 µM
same,GI50,SW-620,15 µM
same,GI50,SK-MEL-28,13 µM
same,GI50,HCT-15,34 µM
CCN(CC)C(=S)SS(=O)(=O)c1ccc(NC(C)=O)cc1,GI50,HOP-62,18 µM
same,GI50,786-0,17 µM
same,GI50,OVCAR-3,31 µM
same,GI50,UACC-257,9 µM
same,GI50,SK-MEL-5,0.4 µM
same,GI50,KM12,13 µM
same,GI50,OVCAR-4,22 µM
same,GI50,IGROV-1,12 µM
same,GI50,TK-10,48 µM
same,GI50,LOX IMVI,14 µM
same,GI50,CAKI-1,16 µM
same,GI50,MDA-N,21 µM
same,GI50,SF-295,28 µM
same,GI50,NCI-H226,35 µM
same,GI50,NCI-H522,< 0.01 µM
same,GI50,RPMI-8226,18 µM
same,GI50,SNB-75,32 µM
same,GI50,ACHN,27 µM
same,GI50,OVCAR-8,15 µM
same,GI50,HCC 2998,27 µM
same,GI50,MDA-MB-435,19 µM
same,GI50,K562,69 µM
same,GI50,BT-549,61 µM
same,GI50,COLO 205,22 µM
same,GI50,NCI/ADR-RES,27 µM
same,GI50,HL-60,24 µM
same,GI50,Malme-3M,16 µM
same,GI50,Hs-578T,60 µM
same,GI50,RXF 393,11 µM
same,GI50,SR,0.01 µM
same,GI50,HOP-92,16 µM
same,GI50,MCF7,18 µM
same,GI50,M14,15 µM
same,GI50,DU-145,23 µM
same,GI50,U-251,15 µM
same,GI50,CCRF-CEM,20 µM
same,GI50,UO-31,20 µM
same,GI50,HCT-116,15 µM
same,GI50,SF-268,44 µM
same,GI50,A549,0.2 µM
same,GI50,SN12C,18 µM
same,GI50,MDA-MB-231,20 µM
same,GI50,MOLT-4,48 µM
same,GI50,SW-620,16 µM
same,GI50,SK-MEL-28,15 µM
same,GI50,HCT-15,28 µM
